PubChem BioAssay (NCI)
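48-hour exposure; five concentrations; linearly interpolated endpoints. Definition used: TGI = concentration required for complete inhibition of growth.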

Columns and labels:
Experiment in all cases: NCI anticancer screen, dose series, 48 h
HCC-2998 colon = system: HCC-2998 colon
LOX IMVI melanoma = system: LOX IMVI melanoma
SK-OV-3 ovarian = system: SK-OV-3 ovarian
SF-268 CNS = system: SF-268 CNS
HL-60(TB) leukemia = system: HL-60(TB) leukemia
786-0 renal = system: 786-0 renal
MALME-3M melanoma = system: MALME-3M melanoma
SNB-19 CNS = system: SNB-19 CNS
A549 NSCLC = system: A549 NSCLC
M14 melanoma = system: M14 melanoma
IGROV1 ovarian = system: IGROV1 ovarian
CCRF-CEM leukemia = system: CCRF-CEM leukemia
DLD-1 colon = system: DLD-1 colon
K-562 leukemia = system: K-562 leukemia
TK-10 renal = system: TK-10 renal
OVCAR-4 ovarian = system: OVCAR-4 ovarian
HS 578T breast = system: HS 578T breast
MDA-N = system: MDA-N
MDA-MB-231 breast = system: MDA-MB-231 breast
BT-549 breast = system: BT-549 breast

SMILES | TGI (HCC-2998 colon) [µM] | TGI (LOX IMVI melanoma) [µM] | TGI (SK-OV-3 ovarian) [µM] | TGI (SF-268 CNS) [µM] | TGI (HL-60(TB) leukemia) [µM] | TGI (786-0 renal) [µM] | TGI (MALME-3M melanoma) [µM] | TGI (SNB-19 CNS) [µM] | TGI (A549 NSCLC) [µM] | TGI (M14 melanoma) [µM] | TGI (IGROV1 ovarian) [µM] | TGI (CCRF-CEM leukemia) [µM] | TGI (DLD-1 colon) [µM] | TGI (K-562 leukemia) [µM] | TGI (TK-10 renal) [µM] | TGI (OVCAR-4 ovarian) [µM] | TGI (HS 578T breast) [µM] | TGI (MDA-N) [µM] | TGI (MDA-MB-231 breast) [µM] | TGI (BT-549 breast) [µM]
N#Cc1ccc(/C=C(/C(=O)c2ccccc2)c2ccccc2)cc1 | 30.6 | 10.6 | > 54.6 | 41.1 | 9.81 | 15.5 | 29.1 | 50.1 | 44.2 | 27.8 | > 57.4 | > 29.1 | 13 | > 24.7 | 57 | 26.9 |  |  |  | 
O=c1[nH]c2cc([N+](=O)[O-])ccc2nc1/C(=N/Nc1ccccc1)C(O)c1ccco1 (centres undefined) | > 100 | > 100 |  | > 100 | > 100 | > 100 | > 100 | > 100 | > 100 | > 100 | > 100 | > 100 | > 100 | > 100 |  | > 100 |  |  |  | 
C/C(=N\NC(=O)C[N+](C)(C)C)c1sc(-c2cccnc2)nc1C | > 100 | > 100 | > 100 | > 100 | > 100 | > 100 | > 100 |  | > 100 | > 100 | > 100 | > 100 | > 100 | > 100 | > 100 |  |  |  |  | 
O=C1N2Cc3c4ccc5c3CN3C(=O)N6Cc7c(ccc(c7CN1C6(c1ccccc1)C23c1ccccc1)OCCOCCOc1cc(Br)c(Br)cc1OCCOCCO4)OCCOCCOc1cc(Br)c(Br)cc1OCCOCCO5 (centres undefined) | > 100 |  | > 100 | > 100 |  | > 100 | > 100 | > 100 | > 100 | > 100 | > 100 | > 100 | 42.1 | > 100 | > 100 | > 100 |  |  |  | 
CC(=O)c1c(SCCN2CCOCC2)n(-c2ccccc2)c(=S)n(-c2ccccc2)c1=O | 28.5 | 26 | > 74.2 | 39.7 | 51.9 | 26.4 | 58.6 | > 55.2 | > 57.6 | 30.2 | 34.6 | 32.5 |  | > 94.2 | 31.2 | > 68.9 | > 100 | 47.9 | 37.1 | 43
CCCN(CCC)C(=S)N/N=C(/C)c1ccccc1O | > 100 | > 100 | > 75.5 | > 35.6 | > 29.5 | 26.7 | 28.8 | > 100 | > 100 | 18.8 | 19.3 | > 33.9 |  | > 100 | 66.4 | 32.3 | > 100 | > 100 | 52.8 | 47.9
Cc1cc(S(=O)(=O)Nc2nnc3c4ccccc4cnn23)c(S)cc1Cl | > 100 | > 100 | > 92.7 | > 100 | > 100 | > 100 | > 100 | > 88.9 | > 100 | > 100 | > 100 | > 100 |  | > 100 | > 100 | > 100 | > 89 | > 100 | > 100 | > 92.3
COc1ccc(C2C(C#N)=C(S)N(C3OC(COC(C)=O)C(OC(C)=O)C(OC(C)=O)C3OC(C)=O)C(C)=C2C(C)=O)cc1 (centres undefined) | > 100 | > 100 | > 100 | > 100 | > 100 | > 100 | > 100 | > 100 | > 100 | > 100 | > 100 | > 100 |  | > 100 | > 100 | > 100 | > 100 | > 100 | > 100 | > 100
O=C(c1ccco1)N(C(=S)N1CCN(c2ccccc2)CC1)C1CCCCC1 |  | > 100 | > 100 | > 100 | > 100 | > 100 | > 100 | > 100 | > 100 | > 100 | > 100 | > 100 | > 100 | > 100 | > 100 | > 100 |  |  |  | 
CC1=NN(c2nc(N)nc(CSc3cc(Cl)c(C)cc3S(N)(=O)=O)n2)C(C)(C)C1 | > 10 | > 10 | > 10 | > 10 | > 10 | > 10 | > 10 | > 10 | > 10 | > 10 | > 10 | > 10 |  | > 10 | > 10 | > 10 | > 10 | > 10 | > 10 | > 10
Cc1cccc(NC(=O)O/N=C(\Cl)C(C)C)c1 | 33.8 | 3.67 | 31.7 | 38 | 4.27 | 4.12 | 5.29 | 38.9 | 40.9 | 16.4 | 33.8 | 3.9 |  | > 100 | 27.3 | 29.4 | 63.7 | 25 | 33.4 | 12.2
O/N=C(/C(Cl)=C(Cl)Cl)C(Cl)Cl | 79.6 | 37.3 | 74.7 | 36.3 | 26.3 | 34 | 77.9 | > 100 | > 100 | 40.8 | 44.6 | 36.7 |  | 38 | 34.7 | 30.3 | 61.3 | 32.8 | 40 | 41.4
O=[N+]([O-])c1ccc(-n2nc3ccc4c(no[n+]4[O-])c3[n+]2[O-])c([N+](=O)[O-])c1 | 8.77 | 4.33 | 23 | 13.8 | 5.43 | 7.97 | 7.45 | 16.5 | 31.4 | 3.29 | 3.4 | 3.68 |  | 5.75 | 6.88 | 3.19 | 8.6 | 4.47 | 4.64 | 9.49
CC(C)(C)OC(=O)N1CC(CCl)c2ccc(O)cc21 (centres undefined) | 2.02 | 3.72 | 11.8 | 4.26 | 5.29 | 12.3 | 3.01 | 10.6 | 11.3 | 3.21 | 13.3 | 9.61 |  | 14.2 | 7.47 | 1.39 | 7.41 | 3.67 | 11.4 | 4.61
COC(=O)CN(CC(O)C(NC(C)=O)C(O)C=O)C(=O)OCc1ccccc1 (centres undefined) | > 100 | > 100 | > 100 | > 100 | > 100 | > 100 | > 100 | > 100 | > 100 | > 100 | > 100 | > 100 |  | > 100 | > 100 | > 100 | > 100 | > 100 | > 100 | > 100
O=C(O)c1nc2ccc(Cl)cc2[nH]c1=O | > 100 | > 100 | > 100 | > 100 | > 100 | > 100 | > 100 | > 100 | > 100 | > 100 | > 100 | > 100 |  | > 100 | > 100 | > 100 | > 100 | > 100 | > 100 | > 100
CN(CCNC(=O)c1c[nH]c2c1ccc1ccccc12)CCNC(=O)c1c[nH]c2c1ccc1ccccc12 | 2.87 | 3.09 | 18.4 | 11.6 | 4.29 | 2.87 | 23 | 6.23 | 5.83 | 3.52 | 3.08 | 3.86 |  | 3.31 | 9.75 | 11.7 | 10.5 | 5.63 | 3.2 | 26.9
CCO/S(=N/S(=O)(=O)c1ccccc1)c1ccccc1[N+](=O)[O-] (centres undefined) | > 100 | > 100 | > 100 | > 100 |  | > 100 | > 100 | > 100 | > 100 | > 100 | > 100 | > 100 | > 100 | > 100 |  | > 100 |  |  |  | 
N#C/C(c1nc2ccccc2[nH]1)=c1\s/c(=C(/N)O)c(=N)n1-c1ccccc1 |  | > 100 | > 100 | > 100 | > 100 | > 100 | > 100 | > 100 | > 100 | > 100 | > 100 | > 100 | > 100 | > 100 | > 100 | > 100 |  |  |  | 
CNC(=O)N(CCC#N)CCN(C(=O)N(C)C)c1ccccc1 | > 100 | > 100 | > 100 | > 100 | > 100 | > 100 | > 100 | > 100 | > 100 | > 100 | > 100 | > 100 |  | > 100 | > 100 | > 100 | > 100 | > 100 | > 100 | > 100
